Patent publication US8445503B2, “Inhibitors of polo-like kinase” (Elan Pharmaceuticals, Inc., priority 2009, dated 2013)

Experiments:
Assay type in all cases: biochemical
[1] = target: T1, GST-PLK3 (Homo sapiens, UniProt Q9H4B4); assay: PLK TR-FRET peptide assay, PLK3; details: PLK TR-FRET peptide assay, GST-PLK3; read-out: Plk3 IC50
T1 construct: purchased CarnaBio

[2] = target: GST-PLK1 (Homo sapiens, UniProt P53350); assay: PLK TR-FRET peptide assay, PLK1; details: read-out: Plk1 IC50
[3] = target: T2, GST-PLK2 (Homo sapiens, UniProt Q9NYY3); assay: PLK TR-FRET peptide assay, PLK2; details: for IC50: PLK TR-FRET peptide assay, GST-PLK2, read-out: Plk2 IC50; for PLK2 activity relative to the opposite enantiomer / other isomer: comparison of resolved enantiomers, used to assign absolute configuration
T2 construct: purchased CarnaBio
T2 sequence (Q9NYY3 whole entry): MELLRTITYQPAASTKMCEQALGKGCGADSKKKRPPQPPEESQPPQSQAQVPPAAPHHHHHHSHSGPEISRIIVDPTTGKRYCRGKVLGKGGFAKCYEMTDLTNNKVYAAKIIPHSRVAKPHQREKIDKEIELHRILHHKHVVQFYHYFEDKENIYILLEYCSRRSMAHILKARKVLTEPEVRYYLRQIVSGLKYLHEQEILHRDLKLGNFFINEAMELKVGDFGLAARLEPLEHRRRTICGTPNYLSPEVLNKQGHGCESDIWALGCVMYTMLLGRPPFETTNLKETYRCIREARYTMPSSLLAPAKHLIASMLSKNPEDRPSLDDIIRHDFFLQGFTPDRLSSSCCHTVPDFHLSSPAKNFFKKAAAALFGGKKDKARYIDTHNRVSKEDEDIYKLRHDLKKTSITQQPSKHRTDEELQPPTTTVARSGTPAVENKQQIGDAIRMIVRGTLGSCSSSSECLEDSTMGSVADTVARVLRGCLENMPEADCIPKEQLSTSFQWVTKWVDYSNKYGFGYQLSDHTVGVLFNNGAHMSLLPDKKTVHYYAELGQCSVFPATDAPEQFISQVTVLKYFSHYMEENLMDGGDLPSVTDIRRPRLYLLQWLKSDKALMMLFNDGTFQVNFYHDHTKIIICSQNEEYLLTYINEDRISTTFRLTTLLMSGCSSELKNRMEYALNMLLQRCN

T1 sequence (Q9H4B4 whole entry): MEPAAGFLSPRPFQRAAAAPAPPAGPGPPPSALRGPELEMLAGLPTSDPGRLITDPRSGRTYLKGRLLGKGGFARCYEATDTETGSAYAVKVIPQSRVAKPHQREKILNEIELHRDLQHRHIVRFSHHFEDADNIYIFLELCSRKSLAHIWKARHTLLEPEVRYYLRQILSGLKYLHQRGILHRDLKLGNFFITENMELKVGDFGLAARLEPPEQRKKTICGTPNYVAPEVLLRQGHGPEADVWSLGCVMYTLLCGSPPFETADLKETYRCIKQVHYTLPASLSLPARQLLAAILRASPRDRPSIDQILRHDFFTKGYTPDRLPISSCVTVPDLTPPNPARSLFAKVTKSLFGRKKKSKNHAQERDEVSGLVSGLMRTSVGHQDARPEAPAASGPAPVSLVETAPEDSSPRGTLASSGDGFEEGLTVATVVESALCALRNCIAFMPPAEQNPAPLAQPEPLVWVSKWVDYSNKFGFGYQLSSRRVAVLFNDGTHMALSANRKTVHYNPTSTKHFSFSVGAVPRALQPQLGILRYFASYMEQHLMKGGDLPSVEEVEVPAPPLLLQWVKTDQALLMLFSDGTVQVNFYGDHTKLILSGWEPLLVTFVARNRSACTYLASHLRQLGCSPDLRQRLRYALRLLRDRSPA
GST-PLK1, sequence (P53350 whole entry): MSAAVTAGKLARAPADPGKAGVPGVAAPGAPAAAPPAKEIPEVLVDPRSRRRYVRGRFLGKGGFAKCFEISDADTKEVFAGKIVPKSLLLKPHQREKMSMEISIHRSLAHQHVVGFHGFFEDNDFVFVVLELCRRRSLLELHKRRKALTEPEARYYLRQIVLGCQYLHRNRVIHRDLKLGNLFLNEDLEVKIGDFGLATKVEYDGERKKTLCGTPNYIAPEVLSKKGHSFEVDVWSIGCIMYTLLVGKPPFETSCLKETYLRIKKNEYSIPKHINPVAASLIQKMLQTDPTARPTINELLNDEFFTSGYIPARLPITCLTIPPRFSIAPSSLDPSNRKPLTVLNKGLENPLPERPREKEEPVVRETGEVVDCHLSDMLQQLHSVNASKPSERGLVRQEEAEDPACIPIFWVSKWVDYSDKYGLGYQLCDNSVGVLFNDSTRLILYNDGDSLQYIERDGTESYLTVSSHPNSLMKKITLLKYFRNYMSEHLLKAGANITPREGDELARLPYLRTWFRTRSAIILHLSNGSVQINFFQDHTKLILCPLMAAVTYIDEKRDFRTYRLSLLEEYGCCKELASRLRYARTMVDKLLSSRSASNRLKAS

Row | SMILES | IC50 [1] [µM] | IC50 [2] [µM] | IC50 [3] [µM] | PLK2 activity relative to the opposite enantiomer / other isomer [3]
1 | CC[C@@H]1C(=O)N(C)c2cnc(-n3cnc(C(=O)N4CCOCC4)c3)nc2N1C1CCCC1 [Example 45, (R)-8-cyclopentyl-7-ethyl-5-methyl-2-(4-(morpholine-4-carbonyl)-1H-imidazol-1-yl)-7,8-dihydropteridin-6(5H)-one] | 10 to 50 | 1 to 10 | < 1 | 
2 | CC[C@@]12COCCN1c1nc(-c3cnoc3-c3ccccc3)ncc1N(C)C2=O [Example 413, (S)-6a-ethyl-5-methyl-2-(5-phenylisoxazol-4-yl)-6a,7,9,10-tetrahydro-[1,4]oxazino[3,4-h]pteridin-6(5H)-one] | 10 to 50 | 10 to 50 | < 1 | 
3 | CC[C@@H]1C(=O)N(C)c2cnc(-n3ccc(C(N)=O)n3)nc2N1C1CCCC1 [Example 63, (R)-1-(8-cyclopentyl-7-ethyl-5-methyl-6-oxo-5,6,7,8-tetrahydropteridin-2-yl)-1H-pyrazole-3-carboxamide] | 1 to 10 | 1 to 10 | < 1 | 
4 | CC[C@@]12COCCN1c1nc(-c3snnc3-c3ccc(F)cc3F)ncc1N(C)C2=O [Example 397, (S)-2-(4-(2,4-difluorophenyl)-1,2,3-thiadiazol-5-yl)-6a-ethyl-5-methyl-6a,7,9,10-tetrahydro-[1,4]oxazino[3,4-h]pteridin-6(5H)-one] | 10 to 50 | 10 to 50 | < 1 | more active compound
5 | CC[C@@H]1C(=O)N(C)c2cnc(-c3cnncc3-c3ccccc3)nc2N1C1CCCC1 [Example 139, (R)-8-cyclopentyl-7-ethyl-5-methyl-2-(5-phenylpyridazin-4-yl)-7,8-dihydropteridin-6(5H)-one] | < 1 | < 1 | < 1 | 
6 | CC[C@@H]1C(=O)N(C)c2cnc(-n3cnc(C(N)=O)c3)nc2N1C1CCCC1 [Example 69, (R)-1-(8-cyclopentyl-7-ethyl-5-methyl-6-oxo-5,6,7,8-tetrahydropteridin-2-yl)-1H-imidazole-4-carboxamide] | 1 to 10 | < 1 | < 1 | 
7 | CC[C@@]12COCCN1c1nc(-n3ccnc3-c3ccc(F)cc3F)ncc1N(C)C2=O [Example 376, (S)-2-(2-(2,4-difluorophenyl)-1H-imidazol-1-yl)-6a-ethyl-5-methyl-6a,7,9,10-tetrahydro-[1,4]oxazino[3,4-h]pteridin-6(5H)-one] | 10 to 50 | 10 to 50 | < 1 | more active compound
8 | CC[C@@]12COCCN1c1nc(-c3cn[nH]c3-c3ccc(F)cc3F)ncc1N(C)C2=O [Example 411, (S)-2-(5-(2,4-difluorophenyl)-1H-pyrazol-4-yl)-6a-ethyl-5-methyl-6a,7,9,10-tetrahydro-[1,4]oxazino[3,4-h]pteridin-6(5H)-one] | 1 to 10 | 10 to 50 | < 1 | more active compound
9 | CC[C@@]12CCCN1c1nc(-n3ccnc3-c3cccnc3)ncc1N(C)C2=O [Example 137, (S)-6a-ethyl-5-methyl-2-(2-(pyridin-3-yl)-1H-imidazol-1-yl)-6a,7,8,9-tetrahydropyrrolo[2,1-h]pteridin-6(5H)-one] | > 50 | > 50 | 1 to 10 | 
10 | CC[C@@H]1C(=O)N(C)c2cnc(-n3ccnc3-c3nccs3)nc2N1C1CCOCC1 [Example 157, (R)-7-ethyl-5-methyl-8-(tetrahydro-2H-pyran-4-yl)-2-(2-(thiazol-2-yl)-1H-imidazol-1-yl)-7,8-dihydropteridin-6(5H)-one] | 10 to 50 | 1 to 10 | < 1 | 
11 | CCC1C(=O)Nc2cnc(-n3ccnc3-c3ccccc3)nc2N1NC(=O)OC(C)(C)C (stereo not drawn) [Example 274, tert-Butyl 7-ethyl-6-oxo-2-(2-phenyl-1H-imidazol-1-yl)-6,7-dihydropteridin-8(5H)-ylcarbamate] | > 50 | > 50 | > 50 | 
